# From publication PMC10444810, “Induction of open-form bile canaliculus formation by hepatocytes for evaluation of biliary drug excretion” (Communications Biology, 2023)
# Where “and” joins values, the source holds several entries; their conditions need not be identical. Identical values can stand only once.
# Molecular target: T1, CYP2D6 (Homo sapiens, UniProt P10635)
# T1 construct: host or cells: PXB-cells (icHep: JFC, HUM181001B; sandwich culture: JFC)
# Test: Metabolic assay, cocktail substrate method (bufuralol to 1’-hydroxybufuralol)
# Format: in vitro ADME
# Settings: for Enzyme activity, Mean: mean of Well-1 to Well-4
# Description: The metabolic activity of icHep and sandwich-cultured PXB-cells was measured using the cocktail substrate method of drug-metabolizing enzymes. The components of the cocktail are summarized in Supplementary Table 1. Assays were initiated by treating cells with TB containing cocktail substrates. Time point of each substrate was set when a linear increase in its metabolite production was observed. Concentrations of metabolites produced in the medium were measured by liquid chromatography-mass spectrometry (LC-MS/MS).
# T1 sequence (P10635 whole entry): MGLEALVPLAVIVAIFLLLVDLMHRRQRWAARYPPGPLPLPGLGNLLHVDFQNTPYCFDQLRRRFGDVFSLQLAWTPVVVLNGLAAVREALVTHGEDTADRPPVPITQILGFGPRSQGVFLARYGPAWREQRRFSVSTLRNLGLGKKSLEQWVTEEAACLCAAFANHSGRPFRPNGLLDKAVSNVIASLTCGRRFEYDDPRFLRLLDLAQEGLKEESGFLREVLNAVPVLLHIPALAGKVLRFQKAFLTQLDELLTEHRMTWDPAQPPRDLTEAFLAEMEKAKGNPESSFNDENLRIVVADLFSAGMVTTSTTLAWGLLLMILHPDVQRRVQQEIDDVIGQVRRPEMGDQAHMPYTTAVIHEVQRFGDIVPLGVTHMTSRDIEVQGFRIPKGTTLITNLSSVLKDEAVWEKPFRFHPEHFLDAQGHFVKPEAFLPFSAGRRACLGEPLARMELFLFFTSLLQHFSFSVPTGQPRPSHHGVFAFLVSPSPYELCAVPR
smiles,measurement,setting,value
CC(O)c1cccc2cc(C(O)CNC(C)(C)C)oc12 (stereo not drawn) [1'-hydroxybufuralol],Enzyme activity,"PXB-cells (JFC), incubation time 15 min, single wells",16.9358 pmol/106 cells and 20.2476 pmol/106 cells and 18.9803 pmol/106 cells and 17.4477 pmol/106 cells
same,Enzyme activity,"PXB-cells (JFC), incubation time 30 min, single wells",29.3048 pmol/106 cells and 32.2567 pmol/106 cells and 32.3369 pmol/106 cells and 36.5879 pmol/106 cells
same,Enzyme activity,"PXB-cells (JFC), incubation time 45 min, single wells",57.2694 pmol/106 cells and 67.3705 pmol/106 cells and 63.1354 pmol/106 cells and 57.1013 pmol/106 cells
same,Enzyme activity,"PXB-cells (JFC), incubation time 60 min, single wells",88.7619 pmol/106 cells and 86.626 pmol/106 cells and 83.8364 pmol/106 cells and 89.8476 pmol/106 cells
same,Enzyme activity,"PXB-cells (JFC), incubation time 90 min, single wells",79.3357 pmol/106 cells and 85.9811 pmol/106 cells and 83.3593 pmol/106 cells and 74.6468 pmol/106 cells
same,"Enzyme activity, Mean",PXB-cells (JFC),1.57 pmol/min/106 cells
same,Enzyme activity,"PXB-cells (JFC), rate per single well",1.62 pmol/min/106 cells and 1.56 pmol/min/106 cells and 1.50 pmol/min/106 cells and 1.58 pmol/min/106 cells
same,Enzyme activity,"icHep (HUM18100B), incubation time 15 min, single wells",20.6578 pmol/106 cells and 24.0318 pmol/106 cells and 24.5391 pmol/106 cells and 24.1229 pmol/106 cells
same,Enzyme activity,"icHep (HUM18100B), incubation time 30 min, single wells",38.6716 pmol/106 cells and 36.9398 pmol/106 cells and 37.9846 pmol/106 cells and 33.7885 pmol/106 cells
same,Enzyme activity,"icHep (HUM18100B), incubation time 45 min, single wells",56.8381 pmol/106 cells and 54.0547 pmol/106 cells and 51.5492 pmol/106 cells and 53.9902 pmol/106 cells
same,Enzyme activity,"icHep (HUM18100B), incubation time 60 min, single wells",80.7041 pmol/106 cells and 78.1674 pmol/106 cells and 75.41 pmol/106 cells and 73.212 pmol/106 cells
same,Enzyme activity,"icHep (HUM18100B), incubation time 90 min, single wells",107.294 pmol/106 cells and 123.561 pmol/106 cells and 104.675 pmol/106 cells and 114.288 pmol/106 cells
same,"Enzyme activity, Mean",icHep (HUM18100B),1.33 pmol/min/106 cells
same,Enzyme activity,"icHep (HUM18100B), rate per single well",1.40 pmol/min/106 cells and 1.37 pmol/min/106 cells and 1.25 pmol/min/106 cells and 1.31 pmol/min/106 cells
same,Enzyme activity,"icHep (JFC), incubation time 15 min, single wells",27.4857 pmol/106 cells and 27.0951 pmol/106 cells and 24.9076 pmol/106 cells and 26.1443 pmol/106 cells
same,Enzyme activity,"icHep (JFC), incubation time 30 min, single wells",41.2873 pmol/106 cells and 33.111 pmol/106 cells and 48.4523 pmol/106 cells and 44.4518 pmol/106 cells
same,Enzyme activity,"icHep (JFC), incubation time 45 min, single wells",63.4972 pmol/106 cells and 59.7018 pmol/106 cells and 65.0037 pmol/106 cells and 67.8302 pmol/106 cells
same,Enzyme activity,"icHep (JFC), incubation time 60 min, single wells",89.1933 pmol/106 cells and 91.8156 pmol/106 cells and 102.797 pmol/106 cells and 101.548 pmol/106 cells
same,Enzyme activity,"icHep (JFC), incubation time 90 min, single wells",106.28 pmol/106 cells and 107.567 pmol/106 cells and 125.014 pmol/106 cells and 113.156 pmol/106 cells
same,"Enzyme activity, Mean",icHep (JFC),1.55 pmol/min/106 cells
same,Enzyme activity,"icHep (JFC), rate per single well",1.43 pmol/min/106 cells and 1.69 pmol/min/106 cells and 1.64 pmol/min/106 cells and 1.42 pmol/min/106 cells
